Laboratory results reported in US20100239562A1, “Kv CHANNELS IN NEURODEGENERATION AND NEUROPROTECTION” (priority 2006, published 2010).
Where a SMILES comes first, the peptide text is derived from it. The star is where a group is joined. Cbz = O=C(OCc1ccccc1)*; CH2F = FC*

Experiments:
[1] = test system: human fetal neurons; assay: Trypan blue uptake neurotoxicity assay in GrB-treated neuronal cultures; type: cell-based
Experimental: (§1) FIG. 8A-8B Protection against Granzyme B neurotoxicity by Kv1.3 inhibitors. Human fetal neuronal cultures were treated with GB (4 nM) in the presence or absence of various K channel blockers. (FIG. 8A) Cell viability was determined by staining with CYTOQUANT™ blue and the staining was quantitated by a plate reader. […] (FIG. 8B) Cell viability was determined by staining with trypan blue and the % of cells staining were counted which represent dead cells. A minimum of 500 cells was counted in each well and each treatment was done in triplicate.
Human fetal neurons were cultured as previously described (35). Briefly, human fetal brain specimens of 12-17 weeks gestation were obtained in accordance with NIH guidelines. The tissues were then triturated after removing the meninges. Cells were then cultured in T75 flasks in opti-MEM with 5% FBS, 0.5% N2 supplement and 1% antibiotics. Neurons were collected by carefully shaking the flask at least 1 month later. Cells were then seeded at 1×10^5/ml in 96 well plates for 1 week before treatment. These cultures contain 70-80% neurons, <5% microglia and the remaining cells are astrocytes as determined by immunostaining for microtubule associated antigen (MAP-2), CD68 and glial fibrillary acidic protein (GFAP) respectively.
For trypan blue uptake, neuronal cells were seeded at 1×10^5/ml and incubated for 1 week in 96-well plates before treatment. […] The cells were then stained with trypan blue for 5 min, washed with phosphate buffered saline, pH7.4 (PBS) and fixed with 4% paraformaldehyde. Trypan blue positive and negative cells were counted in three pre-determined fields. Approximately 200 cells were counted in each well. Each experiment was done in triplicate wells and mean and SEM were calculated from at least three independent experiments.

[2] = test system: Kv1.3; assay: Kv1.3 immunostaining in GrB-treated NPC; type: cell-based; settings: GrB 4 nM, 24 hours
Experimental: FIG. 9A-9H. […] NPC cultures on cover slips were treated with GrB (4 nM; FIGS. 9B, 9D, 9F, and 9H) for 24 hours or controls without GrB (FIGS. 9A, 9C, 9E, and 9G). The cells were then fixed in 4% paraformaldehyde and immunostained with mAb against nestin (FIGS. 9A-9B) and polyclonal Ab against Kv1.3, followed by fluorescence-conjugated secondary Abs (FIGS. 9C-9D). Nuclei were stained with Hoechst 33342 (Calbiochem, 10 μM; FIGS. 9E-9F). The cells were imaged by confocal microscopy. As shown, more than 98% of the cells were positive for nestin and also moderately stained for Kv1.3 in the control cultures.

[3] = test system: Human fetal neuron cultures; assay: GrB neurotoxicity by caspase-3 activation and nuclear fragmentation; type: cell-based; settings: recombinant GrB 0.5 to 4 nM
Experimental: Human fetal neuron cultures on cover slips were treated with GrB (1 nM) for 24 h. Caspase-3 and βIII tubulin expression in neurons was determined by immunocytochemistry. Briefly, cells were fixed with 4% paraformaldehyde for 5 min, and then blocked with 3% FBS in PBS for 20 min. Polyclonal caspase-3 antiserum (1:500) and monoclonal anti-BIII tubulin (1 μg/ml; Promega, Madison. WI) antibody were then applied and cover slips incubated overnight at 4° C. After washing with PBS, the cover slips were incubated with secondary antibodies (1:200 Donkey anti-rabbit IgG Alexa Fluor 594 and anti-mouse IgG Alexa Fluor 488, Molecular Probes, Eugene, Oreg.) for 2 h. Hochest 33258 (10 μM) was added at the last half an hour to stain the nucleus. The cells were imaged by confocal microscopy.
(§2) Recombinant GrB induces toxicity in neurons but not in astroglia. […] We next determined the effect of perform on GrB induced neurotoxicity. We used threshold toxic concentrations of perform (50 ng/ml) for these experiments. […] We next determined if the GrB mediated toxicity could also occur in astrocytes. Human astrocyte cultures were similarly treated with recombinant GrB (dose-1-4 nM) and monitored for neurotoxicity.

[4] = test system: Primary neurons; assay: Calcium imaging (Fura-2/AM) of cytosolic calcium in neurons; type: cell-based
Experimental: FIG. 4-4B. disrupts calcium homeostasis in neurons. Primary neurons were exposed to GrB for 30 min before imaging of intracellular calcium using Fura-2AM. (FIG. 4A). Resting levels of cytosolic calcium were increased by treatment with 1.0-100 nM GrB. (FIG. 4B). SDF-1α (10 μM) evoked increases of cytosolic calcium were increased by pre-treatment of neurons with 10 nM GrB. * P<0.001.
Cytosolic calcium ([Ca^2+]c) was determined using the ratiometric calcium probe Fura-2/AM using methods similar to those previously described (36). Cells were incubated in 2 μM Fura-2/AM for 20 min at 37° C. in media and washed with Locke's Buffer (154 mM NaCl, 3.6 mM NaHCO3, 5.6 mM KCl, 1 mM MgCl2, 5 mM HEPES, 2.3 mM CaCl2, 10 mM glucose; pH 7.4) to remove extracellular Fura-2/AM. Fura-2 loaded cells were placed into a open bath chamber and maintained at 37° C. (Series 20 open perfusion chamber and TC-344B temperature controller; Warner Instruments. Hamden, Conn.). Buffer flowed over the cells at the rate of ˜2 ml/min using a VC-6 perfusion control system with a multi-input manifold that minimized dead space, allowing for a rapid change between buffer and buffer containing drug. Cells were alternatively excited at 340 and 380 nm by a monochrometer and emission was recorded at 510 with software from Intracellular Imaging (Intracellular Imaging Inc., Cincinnati, Ohio.) […] ratios were converted to nM [Ca^2+]c using curve fitting software and calcium reference standards (Molecular Probes).

[5] = test system: Neuronal precursor cells (NPC); assay: Caspase-3 activation in GrB-treated NPC cultures (Western-blot); type: cell-based; settings: for effect on GB-induced caspase-3 activation: GrB 4 nM 24 hours, pretreatment PTX 100 ng/ml, ROCK-I 10 nM or MgTX 10 nM
[6] = test system: Human fetal neuronal cultures; assay: Cyclic AMP assay in neuronal cultures; type: cell-based; settings: GrB 1 nM, 0-30 min
Experimental: Human fetal neuronal cultures were seeded at 5×10^5/ml in 12 well plates for 1 week before treatment. Cultures were then treated with GrB (1 nM) in Locke's buffer for 0-30 min. After removing the media the cells were treated with 100 μl of 0.1 M HCl for 10 min to achieve cell lysis. The lysate was centrifuged at 600 g for 10 min and the supernatant was used directly for the cyclic AMP assay. Cyclic AMP competitive ELISA kit (ENDOGEN, Rockford, Ill.) was used according to manufacturer's directions.

[7] = test system: Human astrocyte cultures; type: cell-based; settings: recombinant GrB 1-4 nM
Experimental: Enriched human fetal astroglia were cultured as previously described. Briefly, human fetal brain specimens of 12-17 weeks gestation were triturated after removal of the meninges. Cells were then cultured in T75 flasks in DMEM with 10% FBS and 1% antibiotics for at least 1 month. After shaking at 180 rpm for 1 h, cells were separated with trypsin/EDTA. Cells were then seeded at 1×10^5/ml in 96 well plates for 1 week before treatment. >95% of these cells were immunostained for GFAP.
as §2

[8] = test system: Kv1.3; assay: Kv1.3 immunostaining in GB-treated neurons; type: cell-based, human; settings: GB 4 nM, 16 hours
Experimental: FIG. 7A-7H. Expression of Kv1.3 on neurons and toxicity by Granzyme B. Human fetal neuronal cultures were treated with GB (4 nM; FIGS. 7E-7H) or control with no GB (FIGS. 7A-7D) and immunostained with antisera to beta-tubulin (red; FIGS. 7A and 7E) Kv1.3 (green; FIGS. 7C and 7G) and Hoechst (blue; FIGS. 7B and 7F), 16 hours following treatment. […] FIGS. 7D and 7H show merged images with immunostaining with both antisera and Hoechst.
Expression of voltage gated channel, Kv1.3, in neurons. We discovered that that similar to T cells small basal levels of Kv1.3 channel were expressed on neurons. […] Similar increases in Kv1.3 immunostaining in neurons were also noted upon treatment with supernatants from activated T cells (FIG. 7A-7H).

[9] = test system: Human fetal neuronal cultures; assay: CYTOQUANT blue cell viability, GB-treated neuronal cultures with K channel blockers; type: cell-based; settings: GB 4 nM; CYTOQUANT blue staining, plate reader
Experimental: as §1

[10] = target: Kv1.3 channel (voltage-gated potassium channel) on human fetal neurons / neuronal precursor cells (human); assay: cell-based or functional assay
[11] = test system: Neuronal precursor cells (NPC); assay: Neuronal differentiation of NPC (βIII-tubulin / GFAP immunostaining); type: cell-based; settings: MgTX 10 nM for 7 days in differentiating media
Experimental: FIG. 11. Kv1.3 specific blocker enhanced neuronal differentiation in NPC. NPC cultures were treated with (FIGS. 11D-11F) or without (FIGS. 11A-11C) Kv1.3 specific blocker MgTX (10 nM) for 7 days in differentiating media. The cells were then fixed in 4% paraformaldehyde and immunostained with mAb against neuron specific βIII-tubulin (FIGS. 11A, 11D) and polyclonal Ab against astrocyte specific GFAP (FIGS. 11B, 11E), followed by fluorescence-conjugated second Abs. The cells were observed and images were taken under confocal microscopy. […] FIGS. 11C and 11F show the merged images.

[12] = agent 10 μM added 1 h prior to GrB, trypan blue uptake 48 h later

In the case of `CCC(C)(C)C(=O)C(=O)N1CCC[C@H]1C(=O)OCCCc1cccnc1` [GPI-1046, 3-(3-pyridyl)-1-propyl (2S)-1-(3,3-dimethyl-1,2-dioxopentyl)-2-pyrrollidinecarboxylate], the “blocking of GrB-induced neurotoxicity” value [1, 12] is reported as “blocked GrB neurotoxicity”.

In the case of `O=C[C@@H](O)[C@@H](O)[C@H](O)[C@H](O)COP(=O)(O)O` [Mannose-6-phosphate, D-mannose 6-phosphate], the “inhibition of GrB-induced neurotoxicity” value ([1]; pretreated with 10 mM mannose-6-phosphate, then GrB 1 nM, trypan blue uptake, 48 h) is reported as “unable to inhibit GrB-induced neurotoxicity”.

For `COC(=O)C[C@H](NC(=O)[C@H](C)NC(=O)[C@@H](NC(=O)OCc1ccccc1)C(C)C)C(=O)CF` [Z-VAD-fmk] (Cbz-Val-Ala-Asp(OMe)-CH2F), the “blocking of GrB-induced neurotoxicity” value [1, 12] was “significantly (P<0.05) blocked”.

In the case of `Cc1c(C)c2c(c(C)c1O)CCC(C)(C(=O)O)O2` (stereo not drawn) [trolox], the “blocking of GrB-induced neurotoxicity” value [1, 12] is reported as “blocked GrB neurotoxicity”.

With “GrB: 32-kDa serine protease of lymphocyte granules; recombinant GrB used” the “Kv1.3 expression in NPC” value [2] was “significant increase in Kv1.3 expression”, the “minimum concentration needed to cause significant neurotoxicity” value [3] was 1 nM and the “SDF-1α-evoked ER calcium release, peak increase” value ([4]; cultures pre-treated with GrB (10 nM), SDF-1α) was 1000 nM. For the same molecule, the “resting [Ca2+]c” value ([4]; higher dose of GrB, within 30 min) was “four fold”, the “resting concentration of [Ca2+]c” value ([4]; lowest concentration tested, 1 nM GrB, within 30 min) was “doubled” and the “caspase-3 activation in NPC” value ([5]; GrB 4 nM, 24 hours) was “induced caspase-3 activation”. The cAMP levels [6] was “significant decreases at 5 min”, the “cell death in astrocyte cultures” value [7] was “No evidence of cell death” and the “Kv1.3 channel expression in neurons” value [8] was “increased expression of Kv1.3 channel in a subpopulation of cells”.

In the case of MnTMPyP, the “blocking of GrB-induced neurotoxicity” value [1, 12] is reported as “significantly blocked the neurotoxicity”.

dendrotoxin was tested, and the “protection against GB neurotoxicity (cell viability, optical density)” value [9] was “failed to protect against GB neurotoxicity”.

“margatoxin (MgTX), Kv1.3 specific blocker (from UniProt P40755 1-39) (peptide)” showed a protection of human fetal neurons against GB (4 nM) toxicity, trypan blue staining (% dead cells) [10] of 1 to 10 nM.

With “margatoxin (TIINVKCTSPKQCLPPCKAQFGQSAGAKCMNGKCKCYPH) [Margotoxin]” the “concentration with significant protection against GB toxicity” value ([1]; GB 4 nM, trypan blue) was 1 to 10 nM, the “protection against GB toxicity (% trypan blue stained cells)” value ([1]; GB 4 nM, trypan blue) was “protected against GB toxicity in a dose responsive manner” and the “effect on GB-induced caspase-3 activation” value [5] was “attenuated GB-induced caspase-3 activation”. For the same molecule, the “neuronal differentiation (βIII-tubulin positive cells and processes)” value [11] was “increased the number of βIII-tubulin positive cells and processes per cell”.

With pertussis toxin the “blocking of GrB-induced neurotoxicity” value ([1]; 10 μM pertussis toxin, added 1 h prior to GrB, trypan blue uptake, 48 h) was “blocked” and the “effect on GB-induced caspase-3 activation” value [5] was “attenuated GB-induced caspase-3 activation”.

For “rTrtyustoxin: non-specific voltage gated K channel blocker (VFINAKCRGSPECLPKCKEAIGKAAGKCMNGKCKCYP)”, the “protection against GB neurotoxicity (cell viability, optical density)” value [9] was “protective”.

B1: perforin: human perforin, membrane disrupting protein of lymphocyte granules (protein, UniProt P14222 22-555, looked up)
Perforin-1: PCHTAARSECKRSHKFVPGAWLAGEGVDVTSLRRSGSFPVDTQRFLRPDGTCTLCENALQEGTLQRLPLALTNWRAQGSGCQRHVTRAKVSSTEAVARDAARSIRNDWKVGLDVTPKPTSNVHVSVAGSHSQAANFAAQKTHQDQYSFSTDTVECRFYSFHVVHTPPLHPDFKRALGDLPHHFNASTQPAYLRLISNYGTHFIRAVELGGRISALTALRTCELALEGLTDNEVEDCLTVEAQVNIGIHGSISAEAKACEEKKKKHKMTASFHQTYRERHSEVVGGHHTSINDLLFGIQAGPEQYSAWVNSLPGSPGLVDYTLEPLHVLLDSQDPRREALRRALSQYLTDRARWRDCSRPCPPGRQKSPRDPCQCVCHGSAVTTQDCCPRQRGLAQLEVTFIQAWGLWGDWFTATDAYVKLFFGGQELRTSTVWDNNNPIWSVRLDFGDVLLATGGPLRLQVWDQDSGRDDDLLGTCDQAPKSGSHEVRCNLNHGHLKFRYHARCLPHLGGGTCLDYVPQMLLGEPPGNRSGAVW
B1 was tested, and the “enhancement of GrB neurotoxicity” value ([1]; perforin 50 ng/ml combined with GrB 1 nM) was “enhancement was not statistically significant”.
